# Results: US20240043859A1, “HERBICIDE-RESISTANT PROTEIN, AND GENE AND USE THEREOF” (QINGDAO KINGAGROOT CHEMICAL COMPOUND CO., LTD., priority 2020, published 2024)
# “Also recorded” adds a separate entry of the source.
# Key:
# AAD-12 = molecular target: T1, AAD-12 (Delftia acidovorans, UniProt P83309); assay: Degradation activities of AAD-12 on phenoxy acetic acid herbicides by spectrophotometry (A510); assay type: biochemical, Comamonas acidovorans
# T1 construct: made in house; host or cells: E. coli BL21(DE3)
# T1 sequence (P83309 2-292, added parts left off): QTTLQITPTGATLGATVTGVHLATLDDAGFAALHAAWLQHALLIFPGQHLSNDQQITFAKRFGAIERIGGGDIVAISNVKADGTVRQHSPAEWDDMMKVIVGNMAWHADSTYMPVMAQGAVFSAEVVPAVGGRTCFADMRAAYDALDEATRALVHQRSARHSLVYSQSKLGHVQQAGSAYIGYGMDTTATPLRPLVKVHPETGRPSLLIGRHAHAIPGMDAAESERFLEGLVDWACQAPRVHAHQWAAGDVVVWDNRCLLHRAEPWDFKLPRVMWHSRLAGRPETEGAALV
# Procedure: As reported in literature (Fukomori and Flausinger, Purification and characterization of 2,4-dichlorophenoxyacetate/alpha-ketoglutarate dioxygenase Journal of Biological Chemistry (1993) 268(32): 24311-24317), the constructed expression vector pET15b-AAD12 was transformed into E. coli BL21(DE3) and induced by IPTG for expression. After cells were collected and lysed, Ni-NTA column was used for purification and the purity of the protein was analyzed by SDS-PAGE.
# Since phenolic products were produced by AAD-12-substrate catalytic reaction, 4-aminoantipyrine and potassium ferricyanide could be used to develop color with the products in an alkaline environment to generate red products with absorption at 510 nm, and the relevant parameters were directly read with a microplate reader.
# Arabidopsis thaliana = assay: Spray testing of T2 generation transgenic Arabidopsis thaliana; assay type: in vivo; details: 100 g/ha foliage spray, 10 days after spraying
# Source text: The T2 generation seedlings of four representative transformants, pQY2309, pQY2310, pQY2311 and pQY2313, were selected for further spray testing. Four lines were randomly selected from the T2 generation generated by transformation of each vector, and respectively foliage-sprayed with 2,4-D (100 g/ha), MCPA (100 g/ha) and 2,4-DB sodium (100 g/ha) when Arabidopsis thaliana seeds germinated, transplanted and the seedlings grew to 5-7 leaf. Non-transgenic wild-type Col-0 served as a negative control. The level of resistance was assessed 10 days after spraying.
# soybean William82 = assay: Spray testing of transgenic soybean T1 seedlings; assay type: in vivo; details: 4.48 kg/ha foliage spray, 10 days after spraying
# Source text: 1. Vector construction: the pQY2330 vector (see FIG. 8-1) was used as the overexpression vector, containing a Bar resistance gene that can be used as a selection marker for glufosinate. The AAD-like gene, QYD42, SEQ ID NO. 83, was linked to the Xho I restriction site by seamless cloning to construct the transgenic expression vector pQY2330, of which the expression cassette consisted of a double CaMV35S promoter, the AAD-like gene QYD42 and a […] Nos terminator.
# 2. Genetic transformation of soybeans: Soybean transformation was carried out using the Agrobacterium-mediated cotyledon nodes transformation method (Pareddy D, Chennareddy S, Anthony G, et al. Improved soybean transformation for efficient and high throughput transgenic production[J]. Transgenic Research, 2020, 29(968)). A monoclone of the Agrobacterium (EHA105) comprising the overexpression vector pQY2330 was inoculated into 5 ml YEP liquid medium (containing 25 mg/L Rifampicin and 50 mg/L Kanamycin) and shaking-cultured at 220 rmp/min, 28° C. for 8 hours. And then 0.2-0.3 ml bacteria solution was transferred to 200 ml YEP liquid medium (containing 25 mg/L Rifampicin and 50 mg/L Kanamycin) and shaking-cultured at 220 rmp/min, 28° C. overnight until the bacteria reached the exponential growth stage, then centrifuged at 4000 rmp/min for 20 min to collect the cells into a 50 ml centrifuge tube (sterilized). […]
# [1] = AAD-12 enzyme with substrate, chromogenic detection at 510 nm
structure (smiles),measurement,setting,value
"O=C(O)COc1ccc(Cl)cc1Cl [2,4-D, (2,4-dichlorophenoxy)acetic acid, reference compound]",Degradation activity of expressed AAD-12 enzyme on the substrate,AAD-12,degradation activities
same,"A510 of reaction group, Reaction 1",AAD-12; [1],0.2865
same,"A510 of reaction group, Reaction 2",AAD-12; [1],0.2766
same,"A510 of reaction group, Reaction 3",AAD-12; [1],0.2652
same,Increased A510,AAD-12; reaction group versus blank group,+0.130
same,Effect of the herbicide spray on wild-type Col-0,Arabidopsis thaliana,all or almost all non-transgenic wild-type Arabidopsis thaliana died; also recorded: all die
same,Effect of the herbicide spray on non-transgenic soybean William82,soybean William82,all non-transgenic recipient parents died and die
